Measurements taken from paper PMC4552745, “Novel Gallate Triphenylphosphonium Derivatives with Potent Antichagasic Activity” (PLoS ONE, 2015).

How the values were obtained:
[1] = system: T. cruzi trypomastigotes (Y strain) mitochondrial permeability transition pore; assay: Mitochondrial permeability transition pore opening (calcein AM / CoCl2); type: cell-based, Trypanosoma cruzi; details: 1 hour, Fig 6B
Description: The opening of mitochondrial permeability transition pores was assessed using the calcein AM probe, adapting the method described by Huang et al (2014). Calcein-AM is a lipophilic probe that can enter the cell, including the mitochondria, and is then cleaved by cellular esterases, releasing the fluorescent probe calcein. T. cruzi trypomastigotes (Y strain, 5 x 10^6 parasites/mL) were stained with 100 nM calcein AM (Molecular Probes, Applied Biosytems, USA) and incubated at 37°C for 15 min in the presence of […] of CoCl2 to quench the cytosolic fluorescence of calcein. Then, the parasites were washed with PBS and resuspended in RPMI medium, without phenol red, supplemented with 0.3 mM of Ca^+2. The parasites were then seeded in 24-well plates and exposed to the different compounds (TPP^+-C8, TPP^+-C10, TPP^+-C11, and TPP^+-C12) at 1 or 5 μM for 1 hour. As a positive control, one group was exposed to ionomycin (0.5 μM). The samples were measured using a FACS Aria III flow cytometer (BD Biosciences, USA) with the 494/517 filter to detect calcein fluorescence. For every measurement, 5,000 events were recorded. The raw flow cytometry data were analyzed using FACSDiva 6.1 software (BD Biosciences). The results were analyzed using the median fluorescence intensity (MFI) from the frequency histograms. Thus, we used the median intensity of the control group (parasites incubated with calcein AM and CoCl2) to establish 100% of mitochondrial fluorescence, thereby establishing percent ratios between the treatment groups and the control.

VERO cells = assay: MTT reduction viability assay on VERO cells; type: cell-based; details: Chlorocebus sabaeus, 24 hours exposure, mean ± SD
Description: The effect of the drugs on parasite viability was evaluated using the tetrazolium salt (MTT) reduction assay. […] Alternatively, VERO cells attached to the surface of 96-well plates were washed and incubated with MTT (5 mg/mL). After incubation for 4 h at 37°C, the generated formazan crystals were dissolved with 100 μL of 10% (w/v) sodium dodecyl sulfate (SDS) in 0.01 M HCl. The plates were then incubated overnight at 37°C, and the optical density (OD) was determined using a microplate reader (Labsystems Multiskan MS, Finland) at 570 nm. Under these conditions, the OD is directly proportional to the number of viable cells in each well [33, 34]. All of the experiments were performed at least three times. […] The data from each experiment were plotted using the formazan absorbance versus the log of the concentration, and the plot was fitted to the dose-response (four-parameters) equation using the software Graph Pad Prism V5.0, obtaining the EC50 value per drug and per experiment. The data are expressed as the mean ± DS of the EC50s obtained from each experiment.

mouse = system: mouse; set-up: method as in PMID 24568614; details: 15 mg/kg; cited from earlier work

Row | SMILES | mitochondrial calcein fluorescence (median fluorescence intensity) ([1]; 5 μM) | EC50 (VERO cells) [µM] | safety in mouse models (mouse) | mitochondrial calcein fluorescence (median fluorescence intensity) ([1]; 1 μM)
1 | O=C(OCCCCCCCCCC[P+](c1ccccc1)(c1ccccc1)c1ccccc1)c1cc(O)c(O)c(O)c1.[Br-] [TPP^+-C10, triphenyl(10-((3,4,5-trihydroxybenzoyl)oxy)-decyl) phosphonium bromide] | 22 % of the control | 11.3 ± 0.1 | safe | 
2 | O=C(OCCCCCCCCCCCC[P+](c1ccccc1)(c1ccccc1)c1ccccc1)c1cc(O)c(O)c(O)c1.[Br-] [TPP^+-C12, triphenyl(12-((3,4,5-trihydroxybenzoyl)oxy)-dodecyl) phosphonium bromide] | 20 % of the control | 10.9 ± 2.4 |  | 29 % of the control
